Measurements from patent US6107274A, “Piperazines as inhibitors of fructose-1,6-bisphosphatase (FBPase)” (Ontogen Corporation, priority 1999, dated 2000).
Read-outs that look alike come from different tables or passages of the source.

Target: T1, fructose-1,6-bisphosphatase (FBPase) (Homo sapiens, UniProt P09467)
T1 sequence (P09467 1-338): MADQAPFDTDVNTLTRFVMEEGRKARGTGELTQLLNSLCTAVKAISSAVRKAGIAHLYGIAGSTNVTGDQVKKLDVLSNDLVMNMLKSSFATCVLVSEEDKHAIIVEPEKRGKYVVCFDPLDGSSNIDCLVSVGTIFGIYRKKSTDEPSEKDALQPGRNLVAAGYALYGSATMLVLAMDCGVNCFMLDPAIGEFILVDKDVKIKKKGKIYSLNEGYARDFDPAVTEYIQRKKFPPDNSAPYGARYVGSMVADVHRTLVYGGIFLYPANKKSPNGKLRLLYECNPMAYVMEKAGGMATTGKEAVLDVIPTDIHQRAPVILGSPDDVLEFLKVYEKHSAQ
Test: FBPase inhibition assay (Taketa and Pogell): conversion of fructose-1,6-bisphosphate to fructose-6-phosphate, NADPH formation at 340 nm via coupled reactions
Type: biochemical
Method: The above compounds are assayed utilizing the procedure described by Taketa and Pogell (J. Biol. Chem. 240:651 (1965)), wherein the conversion of fructose-1,6-bisphosphate to fructose-6-phosphate is measured by monitoring the conversion of NADP to NADPH through two coupled reactions mediated by phosphoglucose isomerase and glucose-6-phosphate dehydrogenase. The increase in NADPH concentration during the course of the reactions was determined by measuring the increase in absorption at 340 nm. The controls used in the assay were adenosine monophosphate CAMP, 1(50 1.4±0.5 μM) and fructose 2.6-bisphosphate (1(50 2.9±0.9 μM). The results obtained of the above compounds are as follows (Table 2):
In Table 2, IC50 represents the concentration of inhibitor, which would result in 50% inhibition of FBPase activity. The Roman numbers designate the compounds' numbers as depicted in Formula A for which inhibition of FBPase activity has been measured.

[1] = concentration of inhibitor giving 50% inhibition of FBPase activity, read-out: IC50
[2] = controls used in the assay, read-out: 1(50 [IC50] of the assay controls

An IC50 [1] of 24 µM was found for O=C(NCCc1ccc(O)cc1)C(c1ccc([N+](=O)[O-])cc1)N1C(=O)[C@H](Cc2ccccc2)NC(=O)[C@@H]1CC1CCCCC1 (some centres unmarked) [Compound VI, 2-(3-Benzyl-6-cyclohexylmethyl-2,5-dioxo-piperazin-1-yl)-N-[2-(4-hydroxy-phenyl)-ethyl]-2-(4-nitro-phenyl)-acetamide] in this work.

An IC50 [1] of 40 µM was found for CCCCCC(C(=O)NCCc1ccc(O)cc1)N1C(=O)[C@@H]2Cc3ccccc3CN2C(=O)[C@@H]1Cc1ccc(O)cc1 (some centres unmarked) [Compound X, 2-[3-(4-Hydroxy-benzyl)-1,4-dioxo-1,3,4,6,11,11a-hexahydro-pyrazino[1,2-b]isoquinolin-2-yl]-heptanoic acid [2-(4-hydroxy-phenyl)-ethyl]-amide] in this work.

An IC50 [1] of 27 µM was found for O=C(O)c1ccc(CNC(=O)C(c2ccc3c(c2)-c2ccccc2C3)N2C(=O)C3Cc4ccccc4CN3C(=O)C2Cc2ccccc2)cc1 (centres unmarked) [Compound XV, 4-{[2-(3-Benzyl-1,4-dioxo-1,3,4,6,11,11a-hexahydro-pyrazino[1,2-b]isoquinolin-2-yl)-2-(9H-fluoren-3-yl)-acetylamino]-methyl}-benzoic acid] in this work.

An IC50 [1] of 95 µM was found for O=C(O)CCCCCNC(=O)C(c1ccc(Oc2ccccc2)cc1)N1C(=O)C(Cc2ccc([N+](=O)[O-])cc2)NC(=O)C1Cc1ccccc1 (centres unmarked) [Compound XVIII, 6-[2-[2-Benzyl-5-(4-nitro-benzyl)-3,6-dioxo-piperazin-1-yl]-2-(4-phenoxy-phenyl)-acetylamino]-hexanoic acid] in this work.

An IC50 [1] of 0.37 µM was found for N#Cc1ccc(C(C(=O)NCCc2ccc(O)cc2)N2C(=O)C3Cc4ccc(O)cc4CN3C(=O)[C@@H]2CC2CCCCC2)cc1 (some centres unmarked) [Compound I, 2-(4-Cyano-phenyl)-2-(3-cyclohexylmethyl-8-hydroxy-1,4-dioxo-1,3,4,6,11,11a-hexahydro-pyrazino[1,2-b]isoquinolin-2-yl)-N-[2-(4-hydroxy-phenyl)-ethyl]-acetamide] in this work.

An IC50 [1] of 34 µM was found for CCCC(C(=O)NCCc1ccc(O)cc1)N1C(=O)[C@@H]2Cc3ccccc3CN2C(=O)[C@@H]1Cc1ccccc1 (some centres unmarked) [Compound IX, 2-(3-Benzyl-1,4-dioxo-1,3,4,6,11,11a-hexahydro-pyrazino[1,2-b]isoquinolin-2-yl)-pentanoic acid [2-(4-hydroxy-phenyl)-ethyl]-amide] in this work.

An IC50 [2] of 2.9 ± 0.9 µM was found for O=P(O)(O)OC[C@H]1O[C@@](CO)(OP(=O)(O)O)[C@@H](O)[C@@H]1O [fructose 2.6-bisphosphate, reference compound] in this work.

An IC50 [1] of 21 µM was found for CC(C)C[C@H]1C(=O)N2Cc3ccccc3C[C@H]2C(=O)N1C(C(=O)NCCc1ccc(O)cc1)c1ccc([N+](=O)[O-])cc1 (some centres unmarked) [Compound V, N-[2-(4-Hydroxy-phenyl)-ethyl]-2-(3-isobutyl-1,4-dioxo-1,3,4,6,11,11a-hexahydro-pyrazino[1,2-b]isoquinolin-2-yl)-2-(4-nitro-phenyl)-acetamide] in this work.

An IC50 [1] of 57 µM was found for N#Cc1ccc(C(C(=O)NCc2ccc(C(=O)N3CCOCC3)cc2)N2C(=O)[C@@H]3Cc4ccccc4CN3C(=O)[C@@H]2CC2CCCCC2)cc1 (some centres unmarked) [Compound XIII, 2-(4-Cyano-phenyl)-2-(3-cyclohexylmethyl-1,4-dioxo-1,3,4,6,11,11a-hexahydro-pyrazino[1,2-b]isoquinolin-2-yl)-N-[4-(morpholine-4-carbonyl)-benzyl]-acetamide] in this work.

An IC50 [1] of 45 µM was found for CCCC(C(=O)NCCc1ccc(O)cc1)N1C(=O)[C@@H]2Cc3ccccc3CN2C(=O)[C@@H]1Cc1ccc(O)cc1 (some centres unmarked) [Compound XI, 2-[3-(4-Hydroxy-benzyl)-1,4-dioxo-1,3,4,6,11,11a-hexahydro-pyrazino[1,2-b]isoquinolin-2-yl]-pentanoic acid [2-(4-hydroxy-phenyl)-ethyl]-amide] in this work.

An IC50 [1] of 15 µM was found for N#Cc1ccc(C(C(=O)NCCc2ccc(O)cc2)N2C(=O)[C@@H]3Cc4ccccc4CN3C(=O)[C@@H]2Cc2ccccc2)cc1 (some centres unmarked) [Compound IV, 2-(3-Benzyl-1,4-dioxo-1,3,4,6,11,11a-hexahydro-pyrazino[1,2-b]isoquinolin-2-yl)-2-(4-cyano-phenyl)-N-[2-(4-hydroxy-phenyl)-ethyl]-acetamide] in this work.

An IC50 [1] of 54 µM was found for CC(C)CC(C(=O)NCCc1ccc(O)cc1)N1C(=O)[C@@H]2Cc3ccccc3CN2C(=O)[C@@H]1Cc1ccc(O)cc1 (some centres unmarked) [Compound XII, 2-[3-(4-Hydroxy-benzyl)-1,4-dioxo-1,3,4,6,11,11a-hexahydro-pyrazino[1,2-b]isoquinolin-2-yl]-4-methyl-pentanoic acid [2-(4-hydroxy-phenyl)-ethyl]-amide] in this work.

An IC50 [1] of 32 µM was found for NC(=O)c1ccc(C(C(=O)NCCc2ccc(F)cc2)N2C(=O)[C@@H]3Cc4ccccc4CN3C(=O)[C@@H]2CC2CCCCC2)cc1 (some centres unmarked) [Compound VIII, 4-{(3-Cyclohexylmethyl-1,4-dioxo-1,3,4,6,11,11a-hexahydro-pyrazino[1,2-b]isoquinolin-2-yl)-[2-(4-fluoro-phenyl)-ethylcarbamoyl]-methyl}-benzamide] in this work.

An IC50 [1] of 37 µM was found for Cc1ccc(C(C(=O)NCCc2ccc(O)cc2)N2C(=O)[C@@H]3Cc4ccccc4CN3C(=O)[C@@H]2C)cc1 (some centres unmarked) [Compound XVII, N-[2-(4-Hydroxy-phenyl)-ethyl]-2-(3-methyl-1,4-dioxo-1,3,4,6,11,11a-hexahydro-pyrazino[1,2-b]isoquinolin-2-yl)-2-p-tolyl-acetamide] in this work.

An IC50 [1] of 34 µM was found for O=C(O)CCCCCNC(=O)C(c1ccc(Oc2ccccc2)cc1)N1C(=O)[C@H](Cc2ccccc2)NC(=O)[C@@H]1CC1CCCCC1 (some centres unmarked) [Compound XVI, 6-[2-(3-Benzyl-6-cyclohexylmethyl-2,5-dioxo-piperazin-1-yl)-2-(4-phenoxy-phenyl)-acetylamino]-hexanoic acid] in this work.

An IC50 [1] of 24 µM was found for O=C(O)c1ccc(CNC(=O)C(c2ccc(Oc3ccccc3)cc2)N2C(=O)[C@@H]3Cc4ccccc4CN3C(=O)[C@@H]2CC2CCCCC2)cc1 (some centres unmarked) [Compound XIV, 4-{[2-(3-Cyclohexylmethyl-1,4-dioxo-1,3,4,6,11,11a-hexahydro-pyrazino [1,2-b]isoquinolin-2-yl)-2-(4-phenoxy-phenyl)-acetylamino]-methyl}-benzoicacid] in this work.

An IC50 [2] of 1.4 ± 0.5 µM was found for Nc1ncnc2c1ncn2[C@@H]1O[C@H](COP(=O)(O)O)[C@@H](O)[C@H]1O [adenosine monophosphate, reference compound] in this work.

An IC50 [1] of 8 µM was found for N#Cc1ccc(C(C(=O)NCCc2cccc(O)c2)N2C(=O)[C@@H]3Cc4ccccc4CN3C(=O)[C@@H]2CC2CCCCC2)cc1 (some centres unmarked) [Compound III, 2-(4-Cyano-phenyl)-2-(3-cyclohexylmethyl-1,4-dioxo-1,3,4,6,11,11a-hexahydro-pyrazino[1,2-b]isoquinolin-2-yl)-N-[2-(3-hydroxy-phenyl)-ethyl]-acetamide] in this work.

An IC50 [1] of 30 µM was found for CC(C)C[C@H]1C(=O)N2Cc3ccccc3C[C@H]2C(=O)N1C(C(=O)NCCc1ccc(O)cc1)c1ccc(C#N)cc1 (some centres unmarked) [Compound VII, 2-(4-Cyano-phenyl)-N-[2-(4-hydroxy-phenyl)-ethyl]-2-(3-isobutyl-1,4-dioxo-1,3,4,6,11,11a-hexahydro-pyrazino[1,2-b]isoquinolin-2-yl)-acetamide] in this work.

An IC50 [1] of 2.1 µM was found for N#Cc1ccc(C(C(=O)NCCc2ccc(O)cc2)N2C(=O)[C@@H]3Cc4ccccc4CN3C(=O)[C@@H]2CC2CCCCC2)cc1 (some centres unmarked) [Compound II, 2-(4-Cyano-phenyl)-2-(3-cyclohexylmethyl-1,4-dioxo-1,3,4,6,11,11a-hexahydro-pyrazino[1,2-b]isoquinolin-2-yl)-N-[2-(4-hydroxy-phenyl)-ethyl]-acetamide] in this work.
